Patent US20100113584A1, “NOVEL USE OF (-)-EPIGALLOCATECHIN GALLATE” (priority 2007, published 2010)

Columns and labels:
C57BL/6J mice = assay: Daily voluntary running wheel activity of mice on high-fat diet; assay type: in vivo; conditions: male C57BL/6J mice, high-fat diet containing 0.5% w/w EGCG, free access to running wheel, 2 months; P<0.004 vs high-fat diet alone
Excerpt: Male C57BL/6J mice (5 weeks old) were purchased from Charles River (Sulzfeld, Germany). All mice initially received a high-fat diet (Kliba#2154, Provimi Kliba AG, Kaiseraugst, Switzerland) for 3 months. Thereafter, mice were randomly assigned to 5 groups. • Group 1: Low-fat diet, restricted to cage normal activity (Low fat sedentary, n=11) • Group 2: High-fat diet, restricted to cage normal activity (High fat sedentary, n=11) • Group 3: High-fat diet containing 0.5% w/w EGCG, restricted to cage normal activity (High fat+EGCG sedentary, n=10) • Group 4: High-fat diet, free access to running wheel (High fat exercise, n=10) • Group 5: High-fat diet containing 0.5% w/w EGCG, free access to running wheel (High fat+EGCG exercise, n=10) The duration of the treatment was 2 months. […] Daily voluntary running wheel activity was monitored. At the end of the treatment period, maximal running performance on a rodent treadmill (Technical & Scientific Equipment GmbH, Bad Homburg, Germany) was determined. The Gastrocnemius muscles were excised, frozen in liquid nitrogen and stored at −80° C. for later quantification of the fiber type. In the medial gastrocnemius, skeletal muscle fibers were quantified as Type I, Type IIA, Type D/X, Type IIB by immune-histochemistry utilizing fiber specific antibodies and by histochemistry using a cytochrome oxidase staining.

[1] = system: skeletal muscle fibers of medial gastrocnemius muscle; assay: Fiber type quantification in medial gastrocnemius muscle (immune-histochemistry, cytochrome oxidase staining); assay type: in vivo, mice; conditions: 2 months
Excerpt: Male C57BL/6J mice (5 weeks old) were purchased from Charles River (Sulzfeld, Germany). All mice initially received a high-fat diet (Kliba#2154, Provimi Kliba AG, Kaiseraugst, Switzerland) for 3 months. Thereafter, mice were randomly assigned to 5 groups. • Group 1: Low-fat diet, restricted to cage normal activity (Low fat sedentary, n=11) • Group 2: High-fat diet, restricted to cage normal activity (High fat sedentary, n=11) • Group 3: High-fat diet containing 0.5% w/w EGCG, restricted to cage normal activity (High fat+EGCG sedentary, n=10) • Group 4: High-fat diet, free access to running wheel (High fat exercise, n=10) • Group 5: High-fat diet containing 0.5% w/w EGCG, free access to running wheel (High fat+EGCG exercise, n=10) The duration of the treatment was 2 months. During this period all mice received food and water ad libitum. Mice in groups 4 and 5 had unlimited access to running wheels (Technical & Scientific Equipment GmbH, Bad Homburg, Germany). Daily voluntary running wheel activity was monitored. At the end of the treatment period, maximal running performance on a rodent treadmill (Technical & Scientific Equipment GmbH, Bad Homburg, Germany) was determined. The Gastrocnemius muscles were excised, frozen in liquid nitrogen and stored at −80° C. for later quantification of the fiber type. In the medial gastrocnemius, skeletal muscle fibers were quantified as Type I, Type IIA, Type D/X, Type IIB by immune-histochemistry utilizing fiber specific antibodies and by histochemistry using a cytochrome oxidase staining.

[2] = High fat + EGCG (0.5% w/w) exercise (running wheel)
[3] = High fat + EGCG (0.5% w/w) sedentary

In the case of (−)-epigallocatechin gallate [EGCG], the “voluntary running wheel activity, average distance run per day” value (C57BL/6J mice) was 3140.3±43.3 m per day, the “Percentage of Type I fibers in medial gastrocnemius muscle” value [1, 2] was 12.8% and the “Percentage of Type IIa fibers in medial gastrocnemius muscle” value [1, 2] was 54.2%. For the same substance, the “Percentage of Type IIb fibers in medial gastrocnemius muscle” value [1, 2] was 27.8%, the “Percentage of Type IId/x fibers in medial gastrocnemius muscle” value [1, 2] was 5.1% and the “Percentage of Type I fibers in medial gastrocnemius muscle” value [1, 3] was 12.5%. The “Percentage of Type IIa fibers in medial gastrocnemius muscle” value [1, 3] was 53.5%, the “Percentage of Type IIb fibers in medial gastrocnemius muscle” value [1, 3] was 28.8% and the “Percentage of Type IId/x fibers in medial gastrocnemius muscle” value [1, 3] was 5.2%.
